Like-named read-outs stand apart in the source and are kept apart here. Positions of bridges follow the written chain, without caps; N, C: chain ends. Residues, ends and D or L forms follow the SMILES beside them.
How the values were obtained:
Experiment in all cases: cell-based
hNav1.7 = hNav1.7 (Homo sapiens, UniProt Q15858); assay type: cell-based
hNav1.5 = hNav1.5 (Homo sapiens, UniProt Q14524)
hNav1.3 = hNav1.3 (Homo sapiens, UniProt Q9NY46); settings: IonWorks Quattro, read-out: IWQ Use Nav1.3
[1] = Table 23, IonWorks Quattro, use, […], read-out: IWQ Use Nav1.5

hNav1.5, sequence (Q14524 whole entry, looked up): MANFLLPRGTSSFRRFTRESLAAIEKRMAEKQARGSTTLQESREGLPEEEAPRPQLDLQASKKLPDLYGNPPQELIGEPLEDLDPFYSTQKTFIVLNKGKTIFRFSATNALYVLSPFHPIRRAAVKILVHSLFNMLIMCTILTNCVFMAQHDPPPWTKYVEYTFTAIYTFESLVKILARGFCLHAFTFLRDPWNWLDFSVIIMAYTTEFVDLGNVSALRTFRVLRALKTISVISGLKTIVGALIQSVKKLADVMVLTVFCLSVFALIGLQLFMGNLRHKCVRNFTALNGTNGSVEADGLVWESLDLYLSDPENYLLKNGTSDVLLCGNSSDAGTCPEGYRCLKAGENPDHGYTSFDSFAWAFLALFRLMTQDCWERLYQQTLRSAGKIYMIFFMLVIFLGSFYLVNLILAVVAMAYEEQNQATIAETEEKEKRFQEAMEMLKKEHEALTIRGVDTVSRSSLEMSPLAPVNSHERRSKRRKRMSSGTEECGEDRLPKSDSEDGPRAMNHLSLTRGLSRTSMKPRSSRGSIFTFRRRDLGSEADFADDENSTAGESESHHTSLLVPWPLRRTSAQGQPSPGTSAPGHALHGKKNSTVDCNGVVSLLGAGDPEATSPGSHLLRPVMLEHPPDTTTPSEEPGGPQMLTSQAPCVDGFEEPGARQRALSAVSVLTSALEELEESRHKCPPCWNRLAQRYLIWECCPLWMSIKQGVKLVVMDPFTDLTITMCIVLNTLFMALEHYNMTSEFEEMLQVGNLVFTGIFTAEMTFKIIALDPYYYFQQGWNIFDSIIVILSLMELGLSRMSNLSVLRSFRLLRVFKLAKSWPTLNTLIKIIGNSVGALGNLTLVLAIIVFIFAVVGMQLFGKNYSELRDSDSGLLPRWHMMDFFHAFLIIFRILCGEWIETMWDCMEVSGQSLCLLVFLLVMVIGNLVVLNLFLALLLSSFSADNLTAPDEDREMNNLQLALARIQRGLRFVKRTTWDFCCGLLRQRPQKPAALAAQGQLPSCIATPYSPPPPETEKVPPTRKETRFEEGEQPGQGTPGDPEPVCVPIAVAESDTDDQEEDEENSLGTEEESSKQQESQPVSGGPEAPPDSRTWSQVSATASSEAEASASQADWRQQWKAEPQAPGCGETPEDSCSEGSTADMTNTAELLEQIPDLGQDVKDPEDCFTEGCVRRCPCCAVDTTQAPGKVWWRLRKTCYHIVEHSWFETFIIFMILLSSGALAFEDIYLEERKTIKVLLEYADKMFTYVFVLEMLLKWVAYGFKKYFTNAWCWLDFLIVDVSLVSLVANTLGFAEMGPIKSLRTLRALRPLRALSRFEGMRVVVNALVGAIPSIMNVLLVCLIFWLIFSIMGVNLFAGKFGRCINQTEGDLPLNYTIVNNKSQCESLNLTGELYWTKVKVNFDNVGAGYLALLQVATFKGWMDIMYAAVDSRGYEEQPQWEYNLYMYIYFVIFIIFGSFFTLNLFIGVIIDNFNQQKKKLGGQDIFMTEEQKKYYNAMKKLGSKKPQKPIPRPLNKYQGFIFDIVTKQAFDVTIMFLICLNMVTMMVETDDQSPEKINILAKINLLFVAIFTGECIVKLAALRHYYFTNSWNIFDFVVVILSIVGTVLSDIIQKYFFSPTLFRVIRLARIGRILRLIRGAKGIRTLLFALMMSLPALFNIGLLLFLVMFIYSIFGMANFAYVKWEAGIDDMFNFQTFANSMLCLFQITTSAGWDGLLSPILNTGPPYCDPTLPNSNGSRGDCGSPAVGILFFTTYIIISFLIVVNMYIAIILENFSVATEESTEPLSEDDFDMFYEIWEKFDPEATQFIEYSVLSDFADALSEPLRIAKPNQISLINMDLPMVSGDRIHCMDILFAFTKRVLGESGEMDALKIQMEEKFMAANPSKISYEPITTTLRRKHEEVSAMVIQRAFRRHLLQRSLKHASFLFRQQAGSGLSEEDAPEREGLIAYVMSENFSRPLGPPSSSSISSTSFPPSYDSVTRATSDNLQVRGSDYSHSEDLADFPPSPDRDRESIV
hNav1.7, sequence (Q15858 whole entry, looked up): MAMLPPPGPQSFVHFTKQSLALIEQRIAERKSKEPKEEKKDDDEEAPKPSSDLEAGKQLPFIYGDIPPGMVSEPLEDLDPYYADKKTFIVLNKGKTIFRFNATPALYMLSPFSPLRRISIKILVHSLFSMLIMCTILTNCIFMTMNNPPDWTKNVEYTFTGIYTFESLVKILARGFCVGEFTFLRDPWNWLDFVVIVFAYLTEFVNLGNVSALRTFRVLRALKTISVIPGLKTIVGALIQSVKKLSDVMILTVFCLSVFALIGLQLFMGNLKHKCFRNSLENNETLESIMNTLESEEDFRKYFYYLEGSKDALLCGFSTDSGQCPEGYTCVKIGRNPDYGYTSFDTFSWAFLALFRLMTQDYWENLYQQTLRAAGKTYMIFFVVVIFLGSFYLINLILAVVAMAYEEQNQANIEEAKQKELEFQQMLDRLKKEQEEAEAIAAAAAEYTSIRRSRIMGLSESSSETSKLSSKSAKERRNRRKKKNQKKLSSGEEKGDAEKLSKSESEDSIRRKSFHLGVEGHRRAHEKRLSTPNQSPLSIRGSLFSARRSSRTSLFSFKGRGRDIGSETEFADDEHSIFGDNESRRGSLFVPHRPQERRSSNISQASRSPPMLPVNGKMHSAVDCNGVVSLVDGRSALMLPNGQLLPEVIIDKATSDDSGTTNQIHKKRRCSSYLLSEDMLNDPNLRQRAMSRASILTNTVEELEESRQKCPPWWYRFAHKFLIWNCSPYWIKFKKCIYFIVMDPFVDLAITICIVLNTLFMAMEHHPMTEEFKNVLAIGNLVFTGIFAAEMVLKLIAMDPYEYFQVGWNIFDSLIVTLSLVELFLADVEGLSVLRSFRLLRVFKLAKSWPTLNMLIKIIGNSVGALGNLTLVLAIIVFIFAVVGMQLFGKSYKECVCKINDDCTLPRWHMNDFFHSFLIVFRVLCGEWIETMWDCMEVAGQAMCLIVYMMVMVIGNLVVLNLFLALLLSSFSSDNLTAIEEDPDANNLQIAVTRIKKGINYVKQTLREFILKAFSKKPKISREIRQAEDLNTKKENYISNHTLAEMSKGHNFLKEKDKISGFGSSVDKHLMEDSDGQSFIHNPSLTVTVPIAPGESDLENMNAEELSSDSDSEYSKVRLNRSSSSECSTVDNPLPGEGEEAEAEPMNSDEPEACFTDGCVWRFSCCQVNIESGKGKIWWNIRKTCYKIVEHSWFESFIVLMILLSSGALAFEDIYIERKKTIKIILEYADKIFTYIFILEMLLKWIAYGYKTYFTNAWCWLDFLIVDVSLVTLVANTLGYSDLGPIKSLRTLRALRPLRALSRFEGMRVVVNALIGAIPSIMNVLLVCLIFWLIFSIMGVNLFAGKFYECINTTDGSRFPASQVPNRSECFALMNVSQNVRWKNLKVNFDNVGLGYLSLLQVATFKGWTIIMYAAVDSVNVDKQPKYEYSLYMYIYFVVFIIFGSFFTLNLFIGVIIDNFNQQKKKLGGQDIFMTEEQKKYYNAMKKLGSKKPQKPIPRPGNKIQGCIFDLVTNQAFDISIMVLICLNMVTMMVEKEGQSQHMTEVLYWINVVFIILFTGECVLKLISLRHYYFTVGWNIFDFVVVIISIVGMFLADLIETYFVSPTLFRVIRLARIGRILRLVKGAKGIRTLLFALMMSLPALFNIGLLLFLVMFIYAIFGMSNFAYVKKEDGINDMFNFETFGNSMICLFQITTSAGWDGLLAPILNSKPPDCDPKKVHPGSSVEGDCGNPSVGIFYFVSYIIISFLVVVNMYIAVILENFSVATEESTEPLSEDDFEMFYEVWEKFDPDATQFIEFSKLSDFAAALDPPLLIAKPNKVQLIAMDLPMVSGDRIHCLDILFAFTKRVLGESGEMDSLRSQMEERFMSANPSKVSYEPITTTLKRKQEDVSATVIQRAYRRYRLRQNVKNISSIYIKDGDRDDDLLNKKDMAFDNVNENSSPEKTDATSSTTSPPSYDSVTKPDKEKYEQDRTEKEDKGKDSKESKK

CC[C@H](C)[C@@H]1NC(=O)[C@@H]2CSSC[C@@H]3NC(=O)[C@H](C(C)C)NC(=O)[C@H](CC(C)C)NC(=O)[C@H](CC(N)=O)NC(=O)[C@@H]4CCCN4C(=O)[C@H](CCCNC(=N)N)NC(=O)[C@H](CSSC[C@H](NC(=O)[C@@H](N)CC(=O)O)C(=O)N[C@@H](CC(C)C)C(=O)NCC(=O)N[C@@H](Cc4ccccc4)C(=O)N[C@@H](CCSC)C(=O)N[C@@H](CCCNC(=N)N)C(=O)N[C@@H](CCCCN)C(=O)N2)NC(=O)[C@H](CSSC[C@@H](C(=O)N[C@@H](CCCCN)C(=O)N[C@@H](Cc2ccc(O)cc2)C(=O)N[C@H](C(=O)N[C@@H](Cc2ccccc2)C(N)=O)C(C)C)NC(=O)[C@H](Cc2c[nH]c4ccccc24)NC(=O)[C@H](CCCCN)NC(=O)[C@H](Cc2cnc[nH]2)NC(=O)[C@H]([C@@H](C)O)NC(=O)[C@H](C)NC(=O)[C@H](CO)NC3=O)NC(=O)[C@H](CCCCN)NC(=O)[C@H](CC(=O)O)NC(=O)[C@H](CC(N)=O)NC(=O)[C@H](CC(=O)O)NC(=O)[C@@H]2CCCN2C1=O [compound 9] (H-DCLGFMRKCIPDNDKCCRPNLVCSATHKWCKYVF-NH2; disulfide 2-17, 9-23, 16-30)
IC50 (hNav1.7): 300 nM | IC50 (hNav1.5; IonWorks Quattro, Use, read-out: IWQ Use Nav1.5): 18.8 µM | IC50 (hNav1.3; Use): 840 nM

CC[C@H](C)[C@@H]1NC(=O)[C@@H]2CSSC[C@@H]3NC(=O)[C@H](C(C)C)NC(=O)[C@H](CC(C)C)NC(=O)[C@H](CC(N)=O)NC(=O)[C@@H]4CCCN4C(=O)[C@H](CCCNC(=N)N)NC(=O)[C@H](CSSC[C@H](NC(=O)[C@@H](N)CC(=O)O)C(=O)N[C@@H](CC(C)C)C(=O)NCC(=O)N[C@@H](Cc4ccccc4)C(=O)N[C@@H](CCSC)C(=O)N[C@@H](CCCNC(=N)N)C(=O)N[C@@H](CCCCN)C(=O)N2)NC(=O)[C@H](CSSC[C@@H](C(=O)N[C@@H](CCCCN)C(=O)N[C@@H](Cc2ccc(O)cc2)C(=O)N[C@H](C(=O)N[C@@H](Cc2ccccc2)C(N)=O)C(C)C)NC(=O)[C@H](Cc2c[nH]c4ccccc24)NC(=O)[C@H](CCCCN)NC(=O)[C@H](Cc2cnc[nH]2)NC(=O)[C@H](C)NC(=O)[C@H](CCCNC(=N)N)NC(=O)[C@H](CO)NC3=O)NC(=O)[C@H](CCCCN)NC(=O)[C@H](CC(=O)O)NC(=O)[C@H](CC(N)=O)NC(=O)[C@H](CC(=O)O)NC(=O)[C@@H]2CCCN2C1=O [compound 10] (H-DCLGFMRKCIPDNDKCCRPNLVCSRAHKWCKYVF-NH2; disulfide 2-17, 9-23, 16-30)
IC50 (hNav1.7; Table 22, IonWorks Quattro, use, […], read-out: IWQ Use Nav1.7): 250 nM | IC50 (hNav1.5; IWQ Use Nav1.5 (μM)): 10.5 µM | IC50 (hNav1.3; Table 22, use, […]): 170 nM

CC[C@H](C)[C@@H]1NC(=O)[C@@H]2CSSC[C@@H]3NC(=O)[C@H](C(C)C)NC(=O)[C@H](CC(C)C)NC(=O)[C@H](CC(N)=O)NC(=O)[C@@H]4CCCN4C(=O)[C@H](CCCNC(=N)N)NC(=O)[C@H](CSSC[C@H](NC(=O)[C@@H](N)CC(=O)O)C(=O)N[C@@H](CC(C)C)C(=O)NCC(=O)N[C@@H](Cc4ccccc4)C(=O)N[C@@H](CCSC)C(=O)N[C@@H](CCCNC(=N)N)C(=O)N[C@@H](CCCCN)C(=O)N2)NC(=O)[C@H](CSSC[C@@H](C(=O)N[C@@H](CCCCN)C(=O)N[C@@H](Cc2ccc(O)cc2)C(=O)N[C@H](C(=O)N[C@@H](Cc2ccccc2)C(N)=O)C(C)C)NC(=O)[C@H](Cc2c[nH]c4ccccc24)NC(=O)[C@H](CCCCN)NC(=O)[C@H](C)NC(=O)[C@H]([C@@H](C)O)NC(=O)[C@H](CCCNC(=N)N)NC(=O)[C@H](CO)NC3=O)NC(=O)[C@H](CCCCN)NC(=O)[C@H](CC(=O)O)NC(=O)[C@H](CC(N)=O)NC(=O)[C@H](CC(=O)O)NC(=O)[C@@H]2CCCN2C1=O [compound 11] (H-DCLGFMRKCIPDNDKCCRPNLVCSRTAKWCKYVF-NH2; disulfide 2-17, 9-23, 16-30)
IC50 (hNav1.7): 950 nM | IC50 (hNav1.5; [1]): 14.7 µM | IC50 (hNav1.3; Table 23, use, […]): 1150 nM

CC[C@H](C)[C@@H]1NC(=O)[C@@H]2CSSC[C@@H]3NC(=O)[C@H](C(C)C)NC(=O)[C@H](CC(C)C)NC(=O)[C@H](CC(N)=O)NC(=O)[C@@H]4CCCN4C(=O)[C@H](CCCNC(=N)N)NC(=O)[C@H](CSSC[C@H](NC(=O)[C@@H](N)CC(=O)O)C(=O)N[C@@H](CC(C)C)C(=O)NCC(=O)N[C@@H](Cc4ccccc4)C(=O)N[C@@H](CCSC)C(=O)N[C@@H](CCCNC(=N)N)C(=O)N[C@@H](CCCCN)C(=O)N2)NC(=O)[C@H](CSSC[C@@H](C(=O)N[C@@H](CCCCN)C(=O)N[C@@H](Cc2ccc(O)cc2)C(=O)N[C@H](C(=O)N[C@@H](Cc2ccccc2)C(N)=O)C(C)C)NC(=O)[C@H](Cc2c[nH]c4ccccc24)NC(=O)[C@H](C)NC(=O)[C@H](Cc2cnc[nH]2)NC(=O)[C@H]([C@@H](C)O)NC(=O)[C@H](CCCNC(=N)N)NC(=O)[C@H](CO)NC3=O)NC(=O)[C@H](CCCCN)NC(=O)[C@H](CC(=O)O)NC(=O)[C@H](CC(N)=O)NC(=O)[C@H](CC(=O)O)NC(=O)[C@@H]2CCCN2C1=O [compound 12] (H-DCLGFMRKCIPDNDKCCRPNLVCSRTHAWCKYVF-NH2; disulfide 2-17, 9-23, 16-30)
IC50 (hNav1.7): 360 nM | IC50 (hNav1.5; [1]): 17.3 µM | IC50 (hNav1.3; Table 23, use, […]): 660 nM

CC[C@H](C)[C@@H]1NC(=O)[C@@H]2CSSC[C@@H]3NC(=O)[C@H](C(C)C)NC(=O)[C@H](CC(C)C)NC(=O)[C@H](CC(N)=O)NC(=O)[C@@H]4CCCN4C(=O)[C@H](CCCNC(=N)N)NC(=O)[C@H](CSSC[C@H](NC(=O)[C@@H](N)CC(=O)O)C(=O)N[C@@H](CC(C)C)C(=O)NCC(=O)N[C@@H](Cc4ccccc4)C(=O)N[C@@H](CCSC)C(=O)N[C@@H](CCCNC(=N)N)C(=O)N[C@@H](CCCCN)C(=O)N2)NC(=O)[C@H](CSSC[C@@H](C(=O)N[C@@H](C)C(=O)N[C@@H](Cc2ccc(O)cc2)C(=O)N[C@H](C(=O)N[C@@H](Cc2ccccc2)C(N)=O)C(C)C)NC(=O)[C@H](Cc2c[nH]c4ccccc24)NC(=O)[C@H](CCCCN)NC(=O)[C@H](Cc2cnc[nH]2)NC(=O)[C@H]([C@@H](C)O)NC(=O)[C@H](CCCNC(=N)N)NC(=O)[C@H](CO)NC3=O)NC(=O)[C@H](CCCCN)NC(=O)[C@H](CC(=O)O)NC(=O)[C@H](CC(N)=O)NC(=O)[C@H](CC(=O)O)NC(=O)[C@@H]2CCCN2C1=O [compound 13] (H-DCLGFMRKCIPDNDKCCRPNLVCSRTHKWCAYVF-NH2; disulfide 2-17, 9-23, 16-30)
IC50 (hNav1.7): 7940 nM | IC50 (hNav1.5; IWQ Use Nav1.5 (μM)): 14.5 µM | IC50 (hNav1.3; Table 25, use, […]): 7390 nM

CC[C@H](C)[C@@H]1NC(=O)[C@@H]2CSSC[C@@H]3NC(=O)[C@H](C(C)C)NC(=O)[C@H](CC(C)C)NC(=O)[C@H](CC(N)=O)NC(=O)[C@@H]4CCCN4C(=O)[C@H](CCCNC(=N)N)NC(=O)[C@H](CSSC[C@H](NC(=O)[C@@H](N)CC(=O)O)C(=O)N[C@@H](CC(C)C)C(=O)NCC(=O)N[C@@H](Cc4ccccc4)C(=O)N[C@@H](CCSC)C(=O)N[C@@H](CCCNC(=N)N)C(=O)N[C@@H](CCCCN)C(=O)N2)NC(=O)[C@H](CSSC[C@@H](C(=O)N[C@@H](CCCCN)C(=O)N[C@@H](Cc2ccc(O)cc2)C(=O)N[C@@H](C)C(=O)N[C@@H](Cc2ccccc2)C(N)=O)NC(=O)[C@H](Cc2c[nH]c4ccccc24)NC(=O)[C@H](CCCCN)NC(=O)[C@H](Cc2cnc[nH]2)NC(=O)[C@H]([C@@H](C)O)NC(=O)[C@H](CCCNC(=N)N)NC(=O)[C@H](CO)NC3=O)NC(=O)[C@H](CCCCN)NC(=O)[C@H](CC(=O)O)NC(=O)[C@H](CC(N)=O)NC(=O)[C@H](CC(=O)O)NC(=O)[C@@H]2CCCN2C1=O [compound 15] (H-DCLGFMRKCIPDNDKCCRPNLVCSRTHKWCKYAF-NH2; disulfide 2-17, 9-23, 16-30)
IC50 (hNav1.7; Table 26, IonWorks Quattro, use, […], read-out: IWQ Use Nav1.7): 330 nM | IC50 (hNav1.5; Table 26, IonWorks Quattro, use, […], read-out: IWQ Use Nav1.5): 18.6 µM | IC50 (hNav1.3; Table 26, use, […]): 350 nM

CC[C@H](C)[C@@H]1NC(=O)[C@@H]2CSSC[C@@H]3NC(=O)[C@H](C(C)C)NC(=O)[C@H](CC(C)C)NC(=O)[C@H](CC(N)=O)NC(=O)[C@@H]4CCCN4C(=O)[C@H](CCCNC(=N)N)NC(=O)[C@H](CSSC[C@H](NC(=O)[C@@H](N)CC(=O)O)C(=O)N[C@@H](CC(C)C)C(=O)NCC(=O)N[C@@H](Cc4ccccc4)C(=O)N[C@@H](CCSC)C(=O)N[C@@H](CCCNC(=N)N)C(=O)N[C@@H](CCCCN)C(=O)N2)NC(=O)[C@H](CSSC[C@@H](C(=O)N[C@@H](CCCCN)C(=O)N[C@@H](Cc2ccc(O)cc2)C(=O)N[C@H](C(=O)N[C@@H](Cc2ccccc2)C(=O)N[C@@H](C)C(N)=O)C(C)C)NC(=O)[C@H](Cc2c[nH]c4ccccc24)NC(=O)[C@H](CCCCN)NC(=O)[C@H](Cc2c[nH]cn2)NC(=O)[C@H]([C@@H](C)O)NC(=O)[C@H](CCCNC(=N)N)NC(=O)[C@H](CO)NC3=O)NC(=O)[C@H](CCCCN)NC(=O)[C@H](CC(=O)O)NC(=O)[C@H](CC(N)=O)NC(=O)[C@H](CC(=O)O)NC(=O)[C@@H]2CCCN2C1=O [compound 16]
IC50 (hNav1.7; IonWorks Quattro, use-dependent, […], read-out: IWQ Use Nav1.7 (μm)): 410 nM | IC50 (hNav1.5; IonWorks Quattro, use-dependent, […], read-out: IWQ Use Nav1.5): 14.2 µM | IC50 (hNav1.3; use-dependent, […]): 260 nM
